# Measured values published in PMC5983452 (PLoS ONE, 2018).
# Where a name gives a salt, the structure may show the parent alone. Read-outs that look alike come from different tables or passages of the source.
# Test system: panel of 240 cancer cell lines
# Assay: Proliferation in a broad panel of 240 cancer cell lines, 2D culture (Eurofins Panlabs Oncopanel)
# Type: cell-based
# Details: read-out: IC50
# Protocol: Cell lines used in these experiments were obtained from the following sources and were cultured according to conditions specified by the respective cell banks. […] The cell lines listed above were tested for mycoplasma and were negative. Cells were authenticated by STR method or vendor protocols. All 313 cell lines in the CRIPSR pooled screen were purchased from commercial vendors and were STR authenticated and mycoplasma negative. A broad panel of cancer cell lines was screened in the Eurofins Oncopanel. All cells in this panel were mycoplasma negative and STR verified.
smiles,measurement,setting,value
"NC1CCC(S(=O)(=O)N2C3CCC2CC(NC(=O)c2cc(C4CC4)on2)C3)CC1 [EPZ028862, N-((1R,3R,5S)-8-((1r,4R)-4-aminocyclohexylsulfonyl)-8-aza-bicyclo[3.2.1]octan-3-yl)-5-cyclopropylisoxazole-3-carboxamide hydrochloride]",IC50,"5637, Bladder",> 25 µM
same,IC50,"A7, Skin",> 25 µM
same,IC50,"AGS, Colon/GI",> 25 µM
same,IC50,"BC-1, Haematopoietic and lymphoid",> 25 µM
same,IC50,"BM-1604, BM-1604, Prostate",> 25 µM
same,IC50,"C32, Skin",> 25 µM
same,IC50,"C32TG, Skin",> 25 µM
same,IC50,"C-4 I, Female GU",> 25 µM
same,IC50,"CEM/C1, CEM-C1, Haematopoietic and lymphoid",> 25 µM
same,IC50,"CML-T1, CML-T1, Haematopoietic and lymphoid",> 25 µM
same,IC50,"DB, Haematopoietic and lymphoid",> 25 µM
same,IC50,"DK-MG, CNS",> 25 µM
same,IC50,"EB-3, Haematopoietic and lymphoid",> 25 µM
same,IC50,"EM-2, Haematopoietic and lymphoid",> 25 µM
same,IC50,"ES-2, Female GU",> 25 µM
same,IC50,"H4, CNS",> 25 µM
same,IC50,"HLE, Liver",> 25 µM
same,IC50,"HLF, Liver",> 25 µM
same,IC50,"HOS, Soft Tissue",> 25 µM
same,IC50,"HT, Haematopoietic and lymphoid",> 25 µM
same,IC50,"HT-3, Female GU",> 25 µM
same,IC50,"HUH-6-clone5, HUH-6 Clone 5, Liver",> 25 µM
same,IC50,"Homo sapiens, 22Rv1, 22Rv1, Prostate",> 25 µM
same,IC50,"Homo sapiens, 639-V, Bladder",> 25 µM
same,IC50,"Homo sapiens, 647-V, Bladder",> 25 µM
same,IC50,"Homo sapiens, 769-P, Kidney",> 25 µM
same,IC50,"Homo sapiens, 786-0, 786-O, Kidney",> 25 µM
same,IC50,"Homo sapiens, A101D, Skin",> 25 µM
same,IC50,"Homo sapiens, A 172, A172, CNS",> 25 µM
same,IC50,"Homo sapiens, A204, A204, Soft Tissue",> 25 µM
same,IC50,"Homo sapiens, A498, A498, Kidney",> 25 µM
same,IC50,"Homo sapiens, A549, A549, Lung",> 25 µM
same,IC50,"Homo sapiens, A673, A-673, Soft Tissue",> 25 µM
same,IC50,"Homo sapiens, A-375, A375, Skin",> 25 µM
same,IC50,"Homo sapiens, A-427, A427, Lung",> 25 µM
same,IC50,"Homo sapiens, A-431, A431, Skin",> 25 µM
same,IC50,"Homo sapiens, ACHN, Kidney",> 25 µM
same,IC50,"Homo sapiens, AN3-CA, AN3 CA, Female GU",> 25 µM
same,IC50,"Homo sapiens, ARH-77, ARH-77, Haematopoietic and lymphoid",> 25 µM
same,IC50,"Homo sapiens, ASPC1, AsPC-1, Pancreas",> 25 µM
same,IC50,"Homo sapiens, AU565, AU565, Breast",> 25 µM
same,IC50,"Homo sapiens, BE(2)-C, BE(2)C, CNS",> 25 µM
same,IC50,"Homo sapiens, BFTC-905, BFTC-905, Bladder",> 25 µM
same,IC50,"Homo sapiens, BHT-101, BHT-101, Endocrine",> 25 µM
same,IC50,"Homo sapiens, BPH-1, BPH1, Prostate",> 25 µM
same,IC50,"Homo sapiens, BT-20, BT20, Breast",> 25 µM
same,IC50,"Homo sapiens, BT-474, BT474, Breast",> 25 µM
same,IC50,"Homo sapiens, BT-549, BT-549, Breast",> 25 µM
same,IC50,"Homo sapiens, BV-173, BV-173, Haematopoietic and lymphoid",> 25 µM
same,IC50,"Homo sapiens, BXPC-3, BxPC-3, Pancreas",> 25 µM
same,IC50,"Homo sapiens, BeWo, Female GU",> 25 µM
same,IC50,"Homo sapiens, C-4-II, C-4 II, Female GU",> 25 µM
same,IC50,"Homo sapiens, C-33-A, C-33A, Female GU",> 25 µM
same,IC50,"Homo sapiens, CAKI-1, Caki-1, Kidney",> 25 µM
same,IC50,"Homo sapiens, CAKI-2, Caki-2, Kidney",> 25 µM
same,IC50,"Homo sapiens, CAL-27, Cal 27, Head and Neck",> 25 µM
same,IC50,"Homo sapiens, CAL-62, CAL-62, Endocrine",> 25 µM
same,IC50,"Homo sapiens, CAMA-1, CAMA-1, Breast",> 25 µM
same,IC50,"Homo sapiens, CAPAN-1, Capan-1, Pancreas",> 25 µM
same,IC50,"Homo sapiens, CCF-STTG1, CCF-STTG1, CNS",> 25 µM
same,IC50,"Homo sapiens, CCRF-CEM, CCRFCEM, Haematopoietic and lymphoid",> 25 µM
same,IC50,"Homo sapiens, CFPAC-1, CFPAC-1, Pancreas",> 25 µM
same,IC50,"Homo sapiens, CGTH-W-1, CGTH-W-1, Endocrine",> 25 µM
same,IC50,"Homo sapiens, CHL-1, CHL-1, Skin",> 25 µM
same,IC50,"Homo sapiens, CHP-212, CHP-212, CNS",> 25 µM
same,IC50,"Homo sapiens, COLO 201, Colo 201, Colon/GI",> 25 µM
same,IC50,"Homo sapiens, COLO 205, Colo 205, Colon/GI",> 25 µM
same,IC50,"Homo sapiens, COLO 320DM, Colon/GI",> 25 µM
same,IC50,"Homo sapiens, COLO-320-HSR, Colo 320 HSR, Colon/GI",> 25 µM
same,IC50,"Homo sapiens, COLO-829, COLO 829, Skin",> 25 µM
same,IC50,"Homo sapiens, COR-L23, COR-L23, Lung",> 25 µM
same,IC50,"Homo sapiens, COR-L105, COR-L105, Lung",> 25 µM
same,IC50,"Homo sapiens, CRO-AP2, CRO-AP2, Haematopoietic and lymphoid",> 25 µM
same,IC50,"Homo sapiens, Calu-1, Calu1, Lung",> 25 µM
same,IC50,"Homo sapiens, Calu-6, Calu6, Lung",> 25 µM
same,IC50,"Homo sapiens, Caov-3, CaOV3, Female GU",> 25 µM
same,IC50,"Homo sapiens, Capan-2, Capan-2, Pancreas",> 25 µM
same,IC50,"Homo sapiens, ChaGo-K-1, ChaGoK1, Lung",> 25 µM
same,IC50,"Homo sapiens, D283 Med, CNS",> 25 µM
same,IC50,"Homo sapiens, DBTRG-05MG, CNS",> 25 µM
same,IC50,"Homo sapiens, DLD-1, DLD-1, Colon/GI",> 25 µM
same,IC50,"Homo sapiens, DMS-53, DMS53, Lung",> 25 µM
same,IC50,"Homo sapiens, DMS-114, DMS114, Lung",> 25 µM
same,IC50,"Homo sapiens, DMS-273, DMS273, Lung",> 25 µM
same,IC50,"Homo sapiens, DOHH-2, DOHH-2, Haematopoietic and lymphoid",8.66 µM
same,IC50,"Homo sapiens, DU-145, DU145, Prostate",> 25 µM
same,IC50,"Homo sapiens, Daoy, CNS",> 25 µM
same,IC50,"Homo sapiens, Daudi, Haematopoietic and lymphoid",> 25 µM
same,IC50,"Homo sapiens, Detroit 562, Detroit 562, Head and Neck",> 25 µM
same,IC50,"Homo sapiens, DoTc2-4510, DoTc2 4510, Female GU",> 25 µM
same,IC50,"Homo sapiens, EFM-19, EFM-19, Breast",> 25 µM
same,IC50,"Homo sapiens, FaDu, Head and Neck",> 25 µM
same,IC50,"Homo sapiens, G-401, G-401, Kidney",> 25 µM
same,IC50,"Homo sapiens, G-402, G-402, Kidney",> 25 µM
same,IC50,"Homo sapiens, HCT-8, HCT-8, Colon/GI",> 25 µM
same,IC50,"Homo sapiens, HCT-15, HCT-15, Colon/GI",> 25 µM
same,IC50,"Homo sapiens, HCT-116, HCT-116, Colon/GI",> 25 µM
same,IC50,"Homo sapiens, HEC-1-A, Female GU",> 25 µM
same,IC50,"Homo sapiens, HEL 92.1.7, HEL-92-1-7, Haematopoietic and lymphoid",> 25 µM
same,IC50,"Homo sapiens, HMCB, Skin",> 25 µM
same,IC50,"Homo sapiens, HPAF-II, Pancreas",> 25 µM
same,IC50,"Homo sapiens, HT1197, HT-1197, Bladder",> 25 µM
same,IC50,"Homo sapiens, HT-29, HT-29, Colon/GI",> 25 µM
same,IC50,"Homo sapiens, HT-1080, HT-1080, Soft Tissue",> 25 µM
same,IC50,"Homo sapiens, HT-1376, HT1376, Bladder",> 25 µM
same,IC50,"Homo sapiens, HeLa, Female GU",> 25 µM
same,IC50,"Homo sapiens, HepG2, HepG2, Liver",> 25 µM
same,IC50,"Homo sapiens, Hs 294T, Skin",> 25 µM
same,IC50,"Homo sapiens, Hs 695T, Skin",> 25 µM
same,IC50,"Homo sapiens, Hs746T, HS 746T, Colon/GI",> 25 µM
same,IC50,"Homo sapiens, Hs-578T, Hs 578T, Breast",> 25 µM
same,IC50,"Homo sapiens, HuCCT-1, HuCCT1, Liver",> 25 µM
same,IC50,"Homo sapiens, HuP-T4, HuP-T4, Pancreas",> 25 µM
same,IC50,"Homo sapiens, J-RT3-T3-5, J-RT3-T3-5, Haematopoietic and lymphoid",> 25 µM
same,IC50,"Homo sapiens, JEG-3, JEG-3, Female GU",> 25 µM
same,IC50,"Homo sapiens, Jurkat, Haematopoietic and lymphoid",> 25 µM
same,IC50,"Homo sapiens, K562, K562, Haematopoietic and lymphoid",> 25 µM
same,IC50,"Homo sapiens, KATO III, Colon/GI",> 25 µM
same,IC50,"Homo sapiens, L-428, L-428, Haematopoietic and lymphoid",> 25 µM
same,IC50,"Homo sapiens, LNCaP, Prostate",> 25 µM
